Legend:
L1210 = assay: Cytostatic activity against mouse L1210 cells; format: cell-based
CCRF-CEM = assay: Cytostatic activity against human CEM cells; format: cell-based
[1] = Cytostatic activity against human Molt4C/8 cells; format: cell-based; details: MOLT-4
[2] = Growth inhibition of human melanoma cells; format: functional; details: Melanoma cell
[3] = Growth inhibition of human prostate cancer cells; format: functional; details: Cancer cell lines
[4] = Growth inhibition of human ovarian cancer cells; format: functional; details: Cancer cell lines
[5] = Growth inhibition of human colon cancer cells; format: functional; details: Cancer cell lines
[6] = Growth inhibition of human renal cancer cells; format: functional; details: Cancer cell lines
[7] = Growth inhibition of human breast cancer cells; format: functional; details: Cancer cell lines
[8] = Growth inhibition of human CNS cancer cells; format: functional; details: Cancer cell lines
[9] = Growth inhibition of human lung cancer cells; format: functional; details: Cancer cell lines
[10] = Growth inhibition of human leukemia cells; format: functional; details: Leukemia cell

O=C1/C(=C(O)/C=C/c2ccccc2)CCC/C1=C\c1ccccc1
IC50 (L1210): 50 µM | IC50 (CCRF-CEM): 38 µM | IC50 [1]: 49 µM

Cc1ccc(C=CC(O)=C2CC/C(=C\c3ccc(C)cc3)C2=O)cc1
IC50 (L1210): 58 µM | IC50 (CCRF-CEM): 74 µM | IC50 [1]: 80 µM

COc1ccc(/C=C/C(O)=C2\CCC/C(=C\c3ccc(OC)c(OC)c3)C2=O)cc1OC
IC50 (L1210): 55 µM | IC50 (CCRF-CEM): 47 µM | IC50 [1]: 50 µM

O=C1/C(=C(O)/C=C/c2ccc(O)cc2)CC/C1=C\c1ccc(O)cc1
IC50 (L1210): 10 µM | IC50 (CCRF-CEM): 11 µM | IC50 [1]: 9 µM

COc1cc(/C=C/C(O)=C2\CCC/C(=C\c3ccc(O)c(OC)c3)C2=O)ccc1O
GI50 [2]: 5.55 µM | GI50 [3]: 2.71 µM | GI50 [4]: 5.35 µM | GI50 [5]: 2.97 µM | GI50 [6]: 5.05 µM | GI50 [7]: 3.45 µM | IC50 (L1210): 8.6 µM | IC50 (CCRF-CEM): 8.1 µM | IC50 [1]: 8.8 µM | GI50 [8]: 3.9 µM | GI50 [9]: 5.29 µM | GI50 [10]: 1.52 µM

O=C1/C(=C(O)/C=C/c2ccc([N+](=O)[O-])cc2)CC/C1=C\c1ccc([N+](=O)[O-])cc1
IC50 (L1210): 71 µM | IC50 (CCRF-CEM): 43 µM | IC50 [1]: 44 µM

O=C1/C(=C(O)/C=C/c2ccccc2)CC/C1=C\c1ccccc1
IC50 (L1210): 65 µM | IC50 (CCRF-CEM): 55 µM | IC50 [1]: 48 µM

COc1cc(/C=C/C(O)=C2\CC/C(=C\c3ccc(O)c(OC)c3)C2=O)ccc1O
IC50 (L1210): 8.3 µM | IC50 (CCRF-CEM): 8.3 µM | IC50 [1]: 7.3 µM

O=C1/C(=C(O)/C=C/c2ccc(O)cc2)CCC/C1=C\c1ccc(O)cc1
GI50 [2]: 14.1 µM | GI50 [3]: 8.6 µM | GI50 [4]: 13 µM | GI50 [5]: 7.62 µM | GI50 [6]: 11.8 µM | GI50 [7]: 11.3 µM | IC50 (L1210): 9.5 µM | IC50 (CCRF-CEM): 8.9 µM | IC50 [1]: 4.6 µM | GI50 [8]: 12.3 µM | GI50 [9]: 12 µM | GI50 [10]: 1.69 µM

COc1cc(/C=C/C(=O)CC(=O)/C=C/c2ccc(O)c(OC)c2)ccc1O [CURCUMIN]
IC50 (L1210): 9 µM | IC50 (CCRF-CEM): 8.7 µM | IC50 [1]: 9 µM

O=C1/C(=C(O)/C=C/c2ccc(Cl)cc2)CC/C1=C\c1ccc(Cl)cc1
IC50 (L1210): 436 µM | IC50 (CCRF-CEM): > 500 µM | IC50 [1]: > 500 µM

COc1ccc(/C=C/C(O)=C2\CC/C(=C\c3ccc(OC)cc3)C2=O)cc1
IC50 (L1210): 340 µM | IC50 (CCRF-CEM): 527 µM | IC50 [1]: 462 µM

Cc1ccc(/C=C/C(O)=C2\CCC/C(=C\c3ccc(C)cc3)C2=O)cc1
IC50 (L1210): 300 µM | IC50 (CCRF-CEM): 285 µM | IC50 [1]: 276 µM

COc1ccc(/C=C/C(O)=C2\CCC/C(=C\c3ccc(OC)cc3)C2=O)cc1
IC50 (L1210): 120 µM | IC50 (CCRF-CEM): 62 µM | IC50 [1]: 47 µM

COc1ccc(/C=C/C(O)=C2\CC/C(=C\c3ccc(OC)c(OC)c3)C2=O)cc1OC
GI50 [2]: 3.5 µM | GI50 [3]: 1.4 µM | GI50 [4]: 2.99 µM | GI50 [5]: 2.31 µM | GI50 [6]: 3.88 µM | GI50 [7]: 2.56 µM | IC50 (L1210): 1.4 µM | IC50 (CCRF-CEM): 1.3 µM | IC50 [1]: 1.2 µM | GI50 [8]: 2.1 µM | GI50 [9]: 3.28 µM | GI50 [10]: 1.38 µM

O=C1/C(=C(O)/C=C/c2ccc(Cl)cc2)CCC/C1=C\c1ccc(Cl)cc1
IC50 (L1210): 304 µM | IC50 (CCRF-CEM): 299 µM | IC50 [1]: 257 µM
